“Also recorded” adds a separate entry of the source. Ends that are not written are not given here.
What was measured:
PC12 cells [1] = assay: Inhibition of GLP-1, exendin-4 and NGF induced neurite outgrowth in PC12 cells; type: cell-based, rat; settings: 48 h; PD98059 50 μM, LY294002 40 μM, H89 20 μM, or exendin (9-39) with exendin-4
Procedure: NGF at 50 ng/ml and forskolin (PKA activator) (20 μM) were used as positive controls in these treatments.

[2] = test system: fasted, diabetic Zucker rats; assay: Duration of in vivo insulinotropic action after intraperitoneal peptide; design: species or system rat; settings: 0.4 nmol/kg i.p.
Procedure: The time-dependent duration of insulinotropic action was evaluated by quantifying plasma insulin and glucose levels in Zucker rats following intraperitoneal (i.p.) peptide administration. Specifically, after overnight fasting, diabetic male rats, approximately 400 g weight, were anesthetized with 50 mg/kg pentobarbital and a catheter was tied into their right femoral artery for blood collection. […] Blood, taken prior to peptide administration, at 30 and 60 min, and at 2, 4, 6 and 24 h, was drawn into heparinized tubes containing EDTA and aprotinin for insulin determination, and a separate sample was taken to measure glucose. Plasma was separated, removed and immediately frozen to −70° C. Thereafter insulin levels were quantified by using a rat insulin ELISA kit (Crystal Chem Inc., Chicago, Ill.) and plasma glucose was quantified by the glucose oxidase method.

[3] = test system: Zucker fatty (fa/fa) and Wistar rats; assay: Blood glucose and insulin after subcutaneous injection; type: in vivo, rat; settings: 24 nmol/kg s.c.
Procedure: Six-month old male Zucker fa/fa rats (Harlan, Indianapolis, Ind.) and six-month old Wistar rats were used in this study. They were allowed ad libitum access to chow and water and were on a 12 h light, 12 h dark cycle (lights on 0700 h). The bedding for the Zucker rats was a paper based product, “Carefresh” (Absorption Co., Belingham, Wash.). The Zucker rats were fasted on wire, in the absence of bedding, overnight before the experiment. Wistar rats were fasted on their normal bedding. General anaesthesia was induced by an intraperitoneal injection of pentobarbital (50 mg/kg).

RIN 1048-36 cells = assay: Insulin secretion in vitro in RIN 1048-36 cells; type: cell-based, rat; settings: peptide 1×10−8 M, 5 mM glucose, 1 h; compared with GLP-1 and exendin-4
Procedure: Thereafter, they were preincubated for 2 periods of 30 min each with glucose-free buffer (containing mM: 140 NaCl, 5 KCl, 1 NaPO4, 1 MgSO4, 2 CaCl, 20 HEPES buffer (pH 7.4), and 0.1% bovine serum albumin) in a 37° C. humidified incubator. […] After 1 h the medium was removed and stored at −80° C. prior to quantification of insulin levels by EIA (Crystal Chem, Chicago Ill.), and the cells were lysed with HCl (300 μl, 0.1 M, 20 min, RT) for measurement of total protein using the Bradford method (Bio-Rad, Richmond, Calif.) with bovine γ-globulin as a standard.

Aβ1-40 [4] = assay: Aβ1-40 in whole brain homogenates after i.c.v. infusion in control mice; type: in vivo, mouse; settings: 2 μg NGF i.c.v., 48 h, p<0.01
Procedure: Lean db+/db+ control male mice (n=24) were anaesthetized with 50 mg/kg pentobarbitone and placed in a stereotaxic surgical frame with mouse adaptor (David Kopf Instruments, Tujunga, Calif.) using temporal bone cup holders. […] After 48 h all animals were sacrificed by cervical dislocation, the brains removed and rapidly frozen in liquid nitrogen. Brains were pulverized and stored at −80° C. prior to assaying for Aβ levels.
Equivalent volumes of conditioned media and whole brain homogenate were assayed for Aβ1-40 using a sandwich ELISA (Suzuki et. al., 1994). The monoclonal antibody BAN50 (raised against Aβ1-16) was used as the capture antibody for all species of Aβ (Aβ1-40 and Aβ1-42), and the monoclonal antibody BA27 was used to specifically detect Aβ1-40 levels. Levels of Aβ1-40 were expressed in pM concentrations for conditioned media samples and finol/g for the mouse brain homogenates, as deduced from the appropriate standard curve run in parallel with the assay.

[5] = test system: β-amyloid precursor protein (βAPP); assay: Western immunoblot of βAPP (cell lysates) and sAPP (conditioned media) in PC12 cells; settings: day 3, relative to untreated
synaptophysin = assay: Synaptophysin expression in PC12 cells (Western blot); type: cell-based, rat; settings: PC12 cell lysates
Procedure: The synaptophysin monoclonal antibody (Oncogene Research Products, San Diego Calif.), which stains neurosecretory vesicles of PC12 cells, was used. The membranes were blocked with 20 mM Tris, 500 mM NaCl pH 7.4, 1% (w/v) casein (BioRad, San Diego Calif.) at 37° C. for 1 hour. Primary antibody was diluted in block and incubated with the proteins overnight at 4° C. The membrane was vigorously washed with 20 mM Tris pH 7.4, 150 mM NaCl and 0.05% Tween-20 (TBST), three times for 15 minutes at room temperature. The peroxidase-linked secondary antibody in block was incubated with the membrane for 2 hours at room temperature. Peroxidase-linked anti-mouse IgM (Chemicon, Tenecula, Calif.) was used as the secondary antibody against synaptophysin. Excess antibody was washed off with three vigorous washes in TBST prior to incubation in ECL Plus (Amersham, Philadelphia, Pa.) for 5 minutes. The membrane was subsequently exposed to photographic film.

PC12 cells [6] = assay: Neurite outgrowth in PC12 cells; type: cell-based, rat; settings: day 3
Procedure: Three dishes for each treatment condition were prepared. Treatments began 24 hours after seeding, once cells were well attached.
PC12 cells were grown on 60 mm dishes as above and cultured for four days. During this time neurite outgrowth was quantified daily. Five random fields of cells were evaluated per dish and the proportion of neurite-bearing cells was determined. Approximately 100 cells per field were scored for neurites equal to or greater in length than that of the cell body. A cell was only scored once, although it may have had more than one process per cell.

PC12 cells [7] = assay: Bromodeoxyuridine incorporation in PC12 cells; settings: day 1; GLP-1 33 μg/ml, NGF 50 ng/ml
Procedure: Immunocytochemistry with an anti-BrdU antibody after labeling was used to identify cells that were actively replicating DNA at the time of labeling. […] 10 μM BrdU was added to the culture medium for 6 hours prior to fixing in 4% paraformaldehyde, to label cellular DNA. The remainder of the method was followed according to the proliferation kit (Roche, Indianapolis, Ind.). […] BrdU incorporation was quantitated on days 1, 2 and 3 of treatment. Three dishes for each treatment condition were counted and expressed as the percentage of labeled cells relative to the total number of cells.

Aβ1-40 [8] = assay: Aβ1-40 sandwich ELISA of PC12 conditioned media; type: cell-based, rat; settings: PC12 cells, relative to control cells

O=S(=O)(NCCNC/C=C/c1ccc(Br)cc1)c1cccc2cnccc12 [H89]
effect on GLP-1, exendin-4 or NGF induced neurite outgrowth (PC12 cells [1]): some inhibitory effects on GLP-1 and NGF-induced neurite outgrowth

CC[C@H](C)[C@H](NC(=O)[C@H](Cc1ccccc1)NC(=O)[C@H](CCC(=O)O)NC(=O)[C@H](CCCCN)NC(=O)[C@H](C)NC(=O)[C@H](C)NC(=O)[C@H](CCC(N)=O)NC(=O)CNC(=O)[C@H](CCC(=O)O)NC(=O)[C@H](CC(C)C)NC(=O)[C@H](Cc1ccc(O)cc1)NC(=O)[C@H](CO)NC(=O)[C@H](CO)NC(=O)[C@@H](NC(=O)[C@H](CC(=O)O)NC(=O)[C@H](CO)NC(=O)[C@@H](NC(=O)[C@H](Cc1ccccc1)NC(=O)[C@@H](NC(=O)CNC(=O)[C@H](CCC(=O)O)NC(=O)CNC(=O)[C@@H](N)Cc1c[nH]cn1)[C@@H](C)O)[C@@H](C)O)C(C)C)C(=O)N[C@@H](C)C(=O)N[C@@H](Cc1c[nH]c2ccccc12)C(=O)N[C@@H](CC(C)C)C(=O)N[C@H](C(=O)N[C@@H](CCCCN)C(=O)NCC(=O)N[C@@H](CCCNC(=N)N)C(N)=O)C(C)C [GLP-1 Gly^8]
potency on plasma insulin versus equimolar standard [2]: more potent than equimolar GLP-1
hypoglycemia in Zucker rats ([3]; fasted Zucker fatty rats): drop in blood glucose into the hypoglycemic range
blood glucose ([3]; fasted rats, monitored 8 h): rapidly lowered blood glucose
induction of insulin secretion (RIN 1048-36 cells): induced insulin secretion slightly more than exendin-4

peptide 9: GLP-1 with A/G, V/L, S/K, Y/Q, L/M substitutions at position 8, 16, 18, 19, 20 (SEQ ID NO: 6) (HGEGTFTSDLSKQMEGQAAKEFIAWLVKGR)
induction of insulin secretion (RIN 1048-36 cells): retained the ability to induce insulin secretion; also recorded: restores activity

COc1cccc(-c2cc(=O)c3ccccc3o2)c1N [PD98059]
effect on GLP-1, exendin-4 or NGF induced neurite outgrowth (PC12 cells [1]): reduced GLP-1 and exendin-4 induced neurite outgrowth

peptide 8: GLP-1 with A to G substitution at position 8 and V to L at position 16 (SEQ ID NO:5) (HGEGTFTSDLSSYLEGQAAKEFIAWLVKGR)
induction of insulin secretion (RIN 1048-36 cells): retained the ability to induce insulin secretion; also recorded: substantially greater effect on insulin secretion than either GLP-1 or exendin-4

exendin (9-39)
effect on GLP-1, exendin-4 or NGF induced neurite outgrowth (PC12 cells [1]): failed to initiate neurite extension

peptide 15: truncation of exendin-4 including residues up to and including residue 43 (SEQ ID NO:12)
induction of insulin secretion (RIN 1048-36 cells): inducing effect that exceeded that of exendin-4 or GLP-1

peptide 30: peptide 1 with neutral serine replaced by basic lysine in position 18 (SEQ ID NO:27) (HGEGTFTSDVSKYLEGQAAKEFIAWLVKGR)
induction of insulin secretion (RIN 1048-36 cells): loss of activity

nerve growth factor [NGF]
reduction of Aβ1-40 levels compared to vehicle (Aβ1-40 [4]): 40%
intracellular levels of βAPP (cell lysates) [5]: dramatic increases in intracellular levels of βAPP
maximal decrease in synaptophysin expression relative to control cells (synaptophysin): approximately 70%
synaptophysin expression (synaptophysin; relative to untreated): dramatically reduced the expression of the synaptophysin protein
increase in neurite projections from controls (PC12 cells [6]; NGF 10 ng/ml): 550%
increase in neurite projections from controls (PC12 cells [6]; NGF 30 ng/ml): 720%
increased incorporation of BrdU relative to untreated (PC12 cells [7]): 9%
Aβ1-40 levels in conditioned media (Aβ1-40 [8]): significant increases in Aβ1-40 levels

peptide 36: exendin-4 with arginine in position 36 and position 30 modified from glutamic acid to alanine (SEQ ID NO:33) (HGEGTFTSDLSKQMEEEAVREFIAWLKNGR; not fully specified)
induction of insulin secretion (RIN 1048-36 cells): well tolerated

Reference: patent US10941187B2 (The United States of America, as represented by the …, priority 2001, dated 2021)
